# In patent US11185542B2, “Uses of dopamine beta-hydroxylase (DBH) inhibitors and serotonin receptor (5-HT) antagonists for the treatment of cancer” (Jiangsu Yahong Meditech Co., Ltd., priority 2016, dated 2021):
# Values joined by “and” are separate entries in the source; they are usually repeats but may differ in a detail not shown here. Identical values can stand only once.
# Experiments:
# [1] = clinical dosage of nepicastat 160 mg/day; read-out: plasma maximal concentration (Cmax); cited from earlier work
# [2] = tested on: EMT-6 murine breast cancer xenograft; test: In vivo tumor growth, EMT-6 murine breast cancer xenograft model (Example 6); design: species or system Mouse (Mus Musculus); settings: Nepicastat 50 mg/kg, QD, oral
# Procedure: (§1) Experiments using the murine H22, CT-26 and EMT-6 xenograft models were performed as described below.
# (§2) Cells were cultured in RPMI-1640 medium supplemented with 10% FBS at 37° C. in an atmosphere of 5% CO2 in air. The tumor cells were routinely subcultured three times weekly. The cells that grew in an exponential growth phase were harvested and counted for tumor inoculation.
# (§3) Mice (female, 6-8 weeks old) were inoculated subcutaneously at the right flank with the tumor cells (H22, EMT-6, or CT-26) in 0.1 mL PBS for tumor development. When the tumor volume reached approximately 60-80 mm^3, the mice were grouped randomly according to the animal body weight and tumor volume. Each group had 5-8 tumor-bearing mice.
# (§4) The major endpoint was to determine if tumor growth could be delayed or mice could be cured. Tumor volume was measured three times weekly in two dimensions using a caliper, and the volume was expressed in mm^3 using the formula: V=0.5 a×b^2, where a and b are the long and short diameters of the tumor, respectively. The T/C value (in percent) was an indication of antitumor effectiveness, where T and C were the mean volume of the treated and control groups, respectively, on a given day. The T-C value was calculated according to TV. T-C was calculated with T as the median time (in days) required for the treatment group tumors to reach a predetermined size (e.g., TV as 1000 mm^3), and C as the median time (in days) for the control group tumors to reach the same size. The body weights were measured and recorded at the same time to observe the toxicity of the compounds. The animals were sacrificed at the termination of the study.
# (§5) Summary statistics, including mean and the standard error of the mean (SEM), are provided for the tumor volume of each group at each time point. A two-way analysis of variance (ANOVA) was performed to compare body weight, tumor volume and tumor volume change. A one-way ANOVA was performed to compare tumor weight. All data were analyzed using GraphPad Prism 5. p<0.05 was considered to be statistically significant.
# (§6) Nepicastat was also tested for in vivo tumor growth inhibition in CT-26 murine colon cancer and EMT-6 murine breast cancer xenograft models. Nepicastat was administered orally.
# [3] = tested on: CT-26 murine colon cancer xenograft; test: In vivo tumor growth, CT-26 murine colon cancer xenograft model (Example 6); design: species or system Mouse (Mus Musculus); settings: Nepicastat 50 mg/kg, QD, oral
# Procedure: as §1, §2, §3, §4, §5, §6
# [4] = tested on: H22 murine hepatic cancer xenograft; test: In vivo tumor growth, H22 murine hepatic cancer xenograft model, compared with anti-PD-1 mAb (Example 5); design: species or system Mouse (Mus Musculus); settings: p.o.; for Tumor Volume (mm^3): QD x 20 days; for T/C (%) / TGI (%) tumor growth inhibition: QD
# Procedure: as §1, §2, §3, §4, §5
# The anti-cancer activity of nepicastat, etamicastat and anti-PD-1 monoclonal antibody (mAb) was evaluated in a H22 murine hepatic cancer xenograft model according to the experimental procedure described in Example 2.
# [5] = tested on: H22 murine hepatic cancer xenograft; test: In vivo tumor growth, H22 murine hepatic cancer xenograft model (Example 4); design: species or system Mouse (Mus Musculus)
# Procedure: as §1, §2, §3, §4, §5
# The anti-cancer activity of amperozide and nepicastat was evaluated in a H22 murine hepatic cancer xenograft model according to the experimental procedure described in Example 2. Anti-cancer activity was evaluated by measuring changes in tumor volume.
# [6] = tested on: H22 murine hepatocarcinoma cell line; test: In vitro cell proliferation assay (CellTiter-Glo) in H22 murine hepatocarcinoma cell line; assay type: cell-based
# Procedure: Methods: • (1) Cells were cultured in RPMI-1640 medium supplemented with 10% FBS, 100 U/ml penicillin, and […] streptomycin at 37° C. and 5% CO2 atmosphere. […] The anti-proliferative activity of amperozide, nepicastat, and paclitaxel was tested in the H22 murine hepatocarcinoma cell line according to the experimental procedure described in Example 1.
# [7] = Nepicastat 48 mg/kg, day 19, listed as nepicastat
compound,measurement,setting,value
"NCc1c[nH]c(=S)n1[C@H]1CCc2c(F)cc(F)cc2C1 [Nepicastat, nepicastat]",Cmax,[1],~200 nM
same,T/C (%),"[2]; EMT-6 model, End",76.91%
same,TGI (%) tumor growth inhibition,"[2]; EMT-6 model, End",23.09%
same,Tumor Volume (mm^3) in EMT-6 Model,[2]; day 5 (Initiation),61.55 ± 1.37 mm^3 and 61.55 ± 3.06 mm^3
same,Tumor Volume (mm^3) in EMT-6 Model,[2]; day 8,110.11 ± 2.13 mm^3
same,Tumor Volume (mm^3) in EMT-6 Model,[2]; day 12,229.32 ± 21.67 mm^3
same,Tumor Volume (mm^3) in EMT-6 Model,[2]; day 15,385.24 ± 66.33 mm^3
same,Tumor Volume (mm^3) in EMT-6 Model,[2]; day 19 (End),697.23 ± 35.90 mm^3
same,T/C (%),"[3]; CT-26 model, End",65.70%
same,TGI (%) tumor growth inhibition,"[3]; CT-26 model, End",34.30%
same,Tumor Volume (mm^3) in CT-26 Model,[3]; day 7 (Initiation),59.35 ± 1.65 mm^3 and 59.35 ± 3.69 mm^3
same,Tumor Volume (mm^3) in CT-26 Model,[3]; day 10,86.00 ± 11.91 mm^3
same,Tumor Volume (mm^3) in CT-26 Model,[3]; day 14,314.14 ± 33.19 mm^3
same,Tumor Volume (mm^3) in CT-26 Model,[3]; day 17,501.46 ± 50.04 mm^3
same,Tumor Volume (mm^3) in CT-26 Model,[3]; day 21 (End),1087.75 ± 163.63 mm^3
same,Tumor Volume (mm^3),"[4]; Nepicastat 50 mg/kg, day 3",56.45 ± 4.42 mm^3
same,Tumor Volume (mm^3),"[4]; Nepicastat 50 mg/kg, day 6",107.64 ± 2.13 mm^3
same,Tumor Volume (mm^3),"[4]; Nepicastat 50 mg/kg, day 9",212.98 ± 15.54 mm^3
same,Tumor Volume (mm^3),"[4]; Nepicastat 50 mg/kg, day 13",369.64 ± 18.63 mm^3
same,Tumor Volume (mm^3),"[4]; Nepicastat 50 mg/kg, day 16",552.37 ± 34.69 mm^3
same,Tumor Volume (mm^3),"[4]; Nepicastat 50 mg/kg, day 19",677.68 ± 29.38 mm^3
same,Tumor Volume (mm^3),"[4]; Nepicastat 50 mg/kg, day 22",880.28 ± 33.41 mm^3
same,Tumor Volume (mm^3),"[4]; Nepicastat 50 mg/kg, day 22, listed as nepicastat",880.28 mm^3
same,T/C (%),"[4]; Nepicastat 50 mg/kg, day 22",51.21%
same,TGI (%) tumor growth inhibition,"[4]; Nepicastat 50 mg/kg, day 22",48.79%
same,Tumor Volume (mm^3),"[4]; Nepicastat 100 mg/kg, day 3",56.41 ± 3.96 mm^3
same,Tumor Volume (mm^3),"[4]; Nepicastat 100 mg/kg, day 6",120.60 ± 12.92 mm^3
same,Tumor Volume (mm^3),"[4]; Nepicastat 100 mg/kg, day 9",238.00 ± 22.62 mm^3
same,Tumor Volume (mm^3),"[4]; Nepicastat 100 mg/kg, day 13",384.72 ± 54.05 mm^3
same,Tumor Volume (mm^3),"[4]; Nepicastat 100 mg/kg, day 16",658.54 ± 71.96 mm^3
same,Tumor Volume (mm^3),"[4]; Nepicastat 100 mg/kg, day 19",1049.88 ± 145.91 mm^3
same,Tumor Volume (mm^3),"[4]; Nepicastat 100 mg/kg, day 22",1275.47 ± 154.93 mm^3
same,Tumor Volume (mm^3),"[4]; Nepicastat 100 mg/kg, day 22, listed as nepicastat",1275.47 mm^3
same,T/C (%),"[4]; Nepicastat 100 mg/kg, day 22",74.20%
same,TGI (%) tumor growth inhibition,"[4]; Nepicastat 100 mg/kg, day 22",25.80%
same,T-C (days) (Reach 1000 mm^3),[5]; Nepicastat 16 mg/kg,1 days
same,Tumor Volume,"[5]; Nepicastat 16 mg/kg, day 5",80 ± 6 mm^3
same,Tumor Volume,"[5]; Nepicastat 16 mg/kg, day 7",140 ± 13 mm^3
same,Tumor Volume,"[5]; Nepicastat 16 mg/kg, day 9",260 ± 25 mm^3
same,Tumor Volume,"[5]; Nepicastat 16 mg/kg, day 12",542 ± 75 mm^3
same,Tumor Volume,"[5]; Nepicastat 16 mg/kg, day 14",982 ± 111 mm^3
same,Tumor Volume,"[5]; Nepicastat 16 mg/kg, day 16","1,454 ± 173 mm^3"
same,T/C (%),"[5]; Nepicastat 16 mg/kg, day 19",84.1%
same,TGI (%) tumor growth inhibition,"[5]; Nepicastat 16 mg/kg, day 19",15.9%
same,Tumor Volume,"[5]; Nepicastat 16 mg/kg, day 19","2,546 ± 306 mm^3"
same,T-C (days) (Reach 1000 mm^3),[5]; Nepicastat 48 mg/kg,2 days
same,Tumor Volume,"[5]; Nepicastat 48 mg/kg, day 5",80 ± 6 mm^3
same,Tumor Volume,"[5]; Nepicastat 48 mg/kg, day 7",146 ± 12 mm^3
same,Tumor Volume,"[5]; Nepicastat 48 mg/kg, day 9",249 ± 26 mm^3
same,Tumor Volume,"[5]; Nepicastat 48 mg/kg, day 12",493 ± 74 mm^3
same,Tumor Volume,"[5]; Nepicastat 48 mg/kg, day 14",795 ± 129 mm^3
same,Tumor Volume,"[5]; Nepicastat 48 mg/kg, day 16","1,150 ± 188 mm^3"
same,T/C (%),"[5]; Nepicastat 48 mg/kg, day 19",65.8%
same,TGI (%) tumor growth inhibition,"[5]; Nepicastat 48 mg/kg, day 19",34.2%
same,Tumor Volume,"[5]; Nepicastat 48 mg/kg, day 19","1,992 ± 349 mm^3"
same,T/C (%),[5]; [7],66%
same,Tumor Volume,[5]; [7],1992 mm^3
same,Cell viability (%),"[6]; 0.1 μM, 72 h, H22 cells",103.2%
same,anti-proliferative effect on H22 cell line,"[6]; 1 μM and 0.1, in words",did not show any significant anti-proliferative effects
same,viability at 0.1 µM,"[6]; Mus musculus, H22, 72 h, 0.1 μM, 72 h, H22 cells, read-out: Cell viability (%)",102%
same,viability at 1 µM,"[6]; Mus musculus, H22, 72 h, 1 μM, 72 h, H22 cells, read-out: Cell viability (%)",94.4%
same,IC50,"[6]; Mus musculus, calculated from FIG. 1, read-out: IC50 in H22 murine hepatocarcinoma cells proliferation",52.6 µM
